Experimental data published in DBAASP.
Values after ≈ are worked out from the molar mass of the structure shown. Each block holds one compound with its values, some of them ahead of it.

How the values were obtained:
Experiment in all cases: ≥ marks a high value that may be exact or a test limit, other limits are often not marked, values filed in µg/mL are converted to µM
Candida albicans 3153A = test system: Candida albicans 3153A
Escherichia coli O157:H7 = test system: Escherichia coli O157:H7
[1] = test system: Staphylococcus aureus 1056
[2] = test system: Lacticaseibacillus casei subsp. casei NCDO 161
[3] = test system: Pediococcus pentosaceus NCDO 990
[4] = test system: Carnobacterium maltaromaticum UI49
[5] = test system: Latilactobacillus sakei 706
[6] = test system: Pediococcus pentosaceus Pac1.0
[7] = test system: Pediococcus acidilactici CH
[8] = test system: Latilactobacillus sakei NCDO 2714
[9] = test system: Latilactobacillus curvatus 89
[10] = test system: Lacticaseibacillus casei NCDO 2713
[11] = test system: Weissella viridescens NCDO 1655
[12] = test system: Lactiplantibacillus plantarum UI50
Pseudomonas haemolytica = test system: Pseudomonas haemolytica
Micrococcus luteus = test system: Micrococcus luteus
Escherichia coli = test system: Escherichia coli
[13] = test system: Psychrobacter faecalis X29
[14] = test system: Escherichia coli ATCC 25922
[15] = test system: Rhodococcus rhodochrous X15
Serratia rubidaea X01 = test system: Serratia rubidaea X01
[16] = test system: Staphylococcus carnosus KHS
[17] = test system: Staphylococcus aureus ATCC 2592
[18] = test system: Pseudomonas aeruginosa 1.50
[19] = test system: Bacillus licheniformis X39

MIC (Candida albicans 3153A): 1.32 µM (≈ 6.19 µg/mL)
MIC (Escherichia coli O157:H7): 0.205 µM (≈ 0.959 µg/mL)
MIC [1]: 0.267 µM (≈ 1.25 µg/mL)
Compound: CC[C@H](C)[C@H](NC(=O)[C@H](CC(N)=O)NC(=O)[C@H](CCCCN)NC(=O)[C@@H]1CSSC[C@@H]2NC(=O)[C@H](CCCCN)NC(=O)[C@H](CC(C)C)NC(=O)[C@H](Cc3ccccc3)NC(=O)CNC(=O)[C@@H]3CSSC[C@H](NC(=O)[C@H](CCCCN)NC(=O)CNC(=O)[C@H](CO)NC(=O)[C@H](C(C)C)NC(=O)[C@H](C(C)C)NC(=O)[C@H](Cc4ccccc4)NC(=O)[C@@H]4CCCN4C(=O)[C@H](Cc4ccccc4)NC(=O)[C@H](CO)NC2=O)C(=O)N[C@@H](CO)C(=O)N[C@@H](CCCN=C(N)N)C(=O)N[C@@H](Cc2ccccc2)C(=O)N[C@@H](Cc2ccccc2)C(=O)N[C@@H](Cc2ccccc2)C(=O)N[C@@H](CSSC[C@H](NC(=O)[C@H](CCC(=O)O)NC(=O)[C@H](C)NC(=O)[C@H](CCCCN)NC(=O)[C@H](CC(N)=O)NC(=O)CNC(=O)[C@@H]2CCCN2C(=O)[C@H](C)N)C(=O)N[C@@H](CCC(=O)O)C(=O)N[C@@H](CCCN=C(N)N)C(=O)N[C@@H](CCC(=O)O)C(=O)N[C@@H](CCCCN)C(=O)NCC(=O)N[C@@H](Cc2ccc(O)cc2)C(=O)N3)C(=O)N1)C(=O)N[C@@H](Cc1c[nH]c2ccccc12)C(=O)O [APGNKAECEREKGYCGFLKCSFPFVVSGKCSRFFFCCKNIW]

MIC [2]: 0.4 µM (≈ 1.17 µg/mL)
MIC [3]: 0.4 µM (≈ 1.17 µg/mL)
MIC [4]: 0.4 µM (≈ 1.17 µg/mL)
MIC [5]: 0.4 µM (≈ 1.17 µg/mL)
MIC [6]: 0.05 µM (≈ 0.146 µg/mL)
MIC [7]: 0.4 µM (≈ 1.17 µg/mL)
MIC [8]: 0.05 µM (≈ 0.146 µg/mL)
MIC [9]: 0.4 µM (≈ 1.17 µg/mL)
MIC [10]: 0.4 µM (≈ 1.17 µg/mL)
MIC [11]: 5 nM (≈ 0.0146 µg/mL)
Compound: CC[C@H](C)[C@H](NC(=O)[C@H](C)NC(=O)[C@H](CCCNC(=N)N)NC(=O)CNC(=O)[C@H](C)NC(=O)[C@H](CCC(=O)O)NC(=O)CNC(=O)[C@H](CC(=O)O)NC(=O)[C@H](Cc1ccc(O)cc1)NC(=O)[C@H](Cc1ccccc1)NC(=O)CNC(=O)[C@H](CCCCN)NC(=O)[C@H](CCCNC(=N)N)NC(=O)[C@H](CC(C)C)NC(=O)[C@H](CO)NC(=O)[C@H](CO)NC(=O)[C@H](Cc1c[nH]c2ccccc12)NC(=O)[C@H](Cc1ccccc1)NC(=O)[C@H](CC(N)=O)NC(=O)[C@H](CCCCN)NC(=O)[C@H](Cc1c[nH]c2ccccc12)NC(=O)[C@H](C)NC(=O)CN)C(=O)N[C@@H](CCCNC(=N)N)C(=O)N[C@@H](CCCNC(=N)N)C(=O)O [GAWKNFWSSLRKGFYDGEAGRAIRR]
MIC [12]: 0.4 µM (≈ 1.17 µg/mL)

MIC (Micrococcus luteus): 2.56 µM (≈ 6 µg/mL)
MIC (Escherichia coli): 21.3 µM (≈ 50 µg/mL)
Compound: CC[C@H](C)[C@H](NC(=O)CNC(=O)[C@H](CO)NC(=O)[C@H](C)NC(=O)[C@H](CC(C)C)NC(=O)[C@H](CC(=O)O)NC(=O)CNC(=O)[C@H](C)NC(=O)[C@H](C)NC(=O)[C@H](CO)NC(=O)[C@H](CCCCN)NC(=O)[C@@H](NC(=O)[C@H](CCCCN)NC(=O)[C@H](CCC(N)=O)NC(=O)[C@H](Cc1c[nH]c2ccccc12)NC(=O)[C@H](CC(C)C)NC(=O)CN)[C@@H](C)CC)C(=O)N[C@H](C(=O)N[C@@H](CCC(=O)O)C(=O)N[C@@H](C)C(=O)N[C@H](C(=O)N[C@@H](CCCCN)C(=O)N[C@@H](CO)C(N)=O)[C@@H](C)CC)C(C)C [GLWQKIKSAAGDLASGIVEAIKS]
MIC (Pseudomonas haemolytica): 0.171 µM (≈ 0.4 µg/mL)

MIC [13]: 1.9 µM (≈ 6.4 µg/mL)
MIC [14]: 30 µM (≈ 101 µg/mL)
MIC [15]: 1.9 µM (≈ 6.4 µg/mL)
MIC (Serratia rubidaea X01): ≥ 60 µM
MIC [16]: 1.9 µM (≈ 6.4 µg/mL)
MIC [17]: 3.8 µM (≈ 12.8 µg/mL)
MIC [18]: 30 µM (≈ 101 µg/mL)
MIC [19]: 3.8 µM (≈ 12.8 µg/mL)
Compound: CC[C@H](C)[C@H](NC(=O)CNC(=O)[C@@H](NC(=O)CNC(=O)[C@H](C)NC(=O)CNC(=O)[C@H](CCCN=C(N)N)NC(=O)[C@H](C)NC(=O)[C@@H](NC(=O)CNC(=O)[C@H](CC(C)C)NC(=O)[C@H](C)NC(=O)[C@@H](NC(=O)[C@H](CC(N)=O)NC(=O)[C@H](CCCCN)NC(=O)[C@@H](NC(=O)[C@H](CCCCN)NC(=O)[C@H](CC(=O)O)NC(=O)[C@H](CC(C)C)NC(=O)[C@@H](NC(=O)[C@@H](N)CO)[C@@H](C)CC)[C@@H](C)CC)C(C)C)C(C)C)[C@@H](C)O)C(=O)N[C@@H](CC(C)C)C(=O)N[C@@H](CCCCN)C(=O)N[C@@H](C)C(=O)N[C@@H](CC(C)C)C(=O)N[C@@H](CC(C)C)C(=O)N[C@H]1CSSC[C@@H](C(=O)O)NC(=O)[C@H](CO)NC(=O)[C@H](CCCCN)NC(=O)[C@H](CC(=O)O)NC(=O)[C@H](CC(C)C)NC(=O)[C@H](CCCCN)NC1=O [SILDKIKNVALGVARGAGTGILKALLCKLDKSC]
